The compounds below were run against T1, ADAR1 (Homo sapiens, UniProt P55265) (assay: ADAR1 Inhibition Assay (IFN fold-induction, Quanti-Luc luminescence, p110 KO A549 dual cells)). Details: IFN fold-induction vs DMSO, 24 and 48 h.
T1 construct: endogenous in cells; host or cells: p110 KO A549 dual cells
T1 sequence (P55265 1-1226): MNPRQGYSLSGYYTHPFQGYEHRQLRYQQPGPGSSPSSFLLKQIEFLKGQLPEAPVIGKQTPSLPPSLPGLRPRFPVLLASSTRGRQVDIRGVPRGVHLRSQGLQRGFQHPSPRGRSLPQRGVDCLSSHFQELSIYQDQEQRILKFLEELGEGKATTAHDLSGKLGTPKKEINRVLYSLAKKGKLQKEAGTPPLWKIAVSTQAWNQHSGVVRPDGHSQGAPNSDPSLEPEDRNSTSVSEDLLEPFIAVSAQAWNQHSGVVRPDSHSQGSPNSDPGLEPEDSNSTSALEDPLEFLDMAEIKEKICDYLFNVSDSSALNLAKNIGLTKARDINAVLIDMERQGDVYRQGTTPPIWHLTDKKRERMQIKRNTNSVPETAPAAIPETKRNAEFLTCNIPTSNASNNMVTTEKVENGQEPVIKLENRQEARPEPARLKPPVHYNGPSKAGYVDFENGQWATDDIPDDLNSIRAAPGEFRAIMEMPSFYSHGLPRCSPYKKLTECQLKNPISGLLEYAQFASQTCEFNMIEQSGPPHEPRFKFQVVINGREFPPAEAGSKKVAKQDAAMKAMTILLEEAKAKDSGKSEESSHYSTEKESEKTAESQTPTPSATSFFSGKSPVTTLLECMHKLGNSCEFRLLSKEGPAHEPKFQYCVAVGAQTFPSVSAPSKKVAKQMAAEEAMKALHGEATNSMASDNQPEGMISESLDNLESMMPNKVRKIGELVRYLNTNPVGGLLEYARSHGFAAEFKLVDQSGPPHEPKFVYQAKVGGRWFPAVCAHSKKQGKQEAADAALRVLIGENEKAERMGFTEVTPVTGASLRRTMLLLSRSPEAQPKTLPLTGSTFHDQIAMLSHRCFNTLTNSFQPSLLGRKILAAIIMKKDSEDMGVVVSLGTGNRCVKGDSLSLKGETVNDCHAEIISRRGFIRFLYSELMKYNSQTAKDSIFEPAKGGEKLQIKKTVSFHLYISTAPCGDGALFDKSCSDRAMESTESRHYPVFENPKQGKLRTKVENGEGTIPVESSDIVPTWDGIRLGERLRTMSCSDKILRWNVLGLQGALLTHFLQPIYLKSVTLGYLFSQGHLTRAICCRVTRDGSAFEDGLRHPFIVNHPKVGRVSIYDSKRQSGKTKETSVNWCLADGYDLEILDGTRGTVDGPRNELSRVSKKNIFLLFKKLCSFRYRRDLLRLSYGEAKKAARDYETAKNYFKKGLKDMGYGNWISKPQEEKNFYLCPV
Format: cell-based
Description: An ADAR1 Inhibition Assay was used to determine the biological activity (EC50) of compounds disclosed herein. 100 μL of p110 KO A549 dual cell suspension in supplemented DMEM (20,000 cells per well) was added into a flat bottom 96 well plate. Next day, post media change, 180 μL of supplemented DMEM was added. 20 μL of test compound or positive control was added to the respective wells (Final concentration of DMSO is 1%). The plate was incubated for 24 and 48 hours at 37° C. in a 5% CO2 incubator. After 24 and 48 h, 20 μL of cell suspension was taken in black well plates and 50 μL of Quanti-Luc was added to each well and luminescence was measured using a microplate reader (Spectra Max). IFN fold-induction was plotted considering DMSO as control using the relative luminescence unit (RLU) values. (Fold induction: Sample RLU/Average DMSO RLU).

Row | SMILES | EC50 [µM]
1 | CCOC(=O)c1cnc(NC(=O)COC(=O)c2cccc(NS(C)(=O)=O)c2)c(-c2ccccc2)c1 [Compound 254] | > 100
2 | CCOC(=O)c1cc(-c2ccccc2)ncc1NC(=O)C1CCN(C(=O)c2cccc(NS(C)(=O)=O)c2)C1 (stereo not shown) [Compound 210] | > 100
3 | COC(=O)c1sc(-c2ccccc2)cc1NC(=O)CNC(=O)c1cccc(NS(C)(=O)=O)c1 [Compound 332] | > 100
4 | CCOC(=O)c1cc(-c2ccccc2)sc1NC(=O)[C@@H]1CCCN1C(=O)c1cccc(P(=O)(O)O)c1 [Compound 413] | > 100
5 | CCOC(=O)c1cc(-c2ccccc2)sc1NC(=O)CNC(=O)c1cc(S(N)(=O)=O)ccc1C [Compound 53] | > 100
6 | NS(=O)(=O)c1cccc(C(=O)NCC(=O)Nc2ccc3cc(Br)ccc3c2)c1 [Compound 43] | > 100
7 | CCOC(=O)c1cc(-c2ccc3c(c2)OCO3)sc1NC(=O)COC(=O)c1cccc(NS(C)(=O)=O)c1 [Compound 316] | > 100
8 | CCOC(=O)c1cc(-c2ccccc2)sc1NC(=O)Cn1nc(-c2cccc(NS(C)(=O)=O)c2)oc1=O [Compound 288] | > 100
9 | CCOC(=O)c1cc(-c2ccccc2)[nH]c1NC(=O)CNC(=O)c1cccc(P(=O)(OCC)OCC)c1 [Compound 408] | 50 to 100
10 | CCOC(=O)c1cc(C2=CCN(C)CC2)sc1NC(=O)COC(=O)c1cccc(NS(C)(=O)=O)c1 [Compound 278] | > 100
11 | CCOC(=O)c1cc(Sc2ccccc2)sc1NC(=O)COC(=O)c1cccc(NS(C)(=O)=O)c1 [Compound 315] | > 100
12 | CCOC(=O)c1cc(-c2ccccc2)sc1NC(=O)c1coc(-c2cccc(NS(C)(=O)=O)c2)n1 [Compound 244] | > 100
13 | CCOC(=O)c1nc(-c2ccccc2)oc1NC(=O)COC(=O)c1cccc(P(=O)(OCC)OCC)c1 [Compound 407] | 50 to 100
14 | NS(=O)(=O)c1cccc(NC(=O)Cn2nnc(-c3ccccn3)n2)c1 [Compound 32] | > 100
15 | CCOC(=O)c1cc(-c2ccccc2)sc1NC(=O)Cn1ccc(=O)c(O)c1C [Compound 319] | > 100
16 | CCOC(=O)c1cc(-c2ccccc2)sc1NC(=O)c1cnc(-c2cccc(NS(C)(=O)=O)c2)o1 [Compound 248] | > 100
17 | CCOC(=O)c1cc(-c2ccccc2)sc1NC(=O)CN(C)C(=O)c1cccc(NS(C)(=O)=O)c1 [Compound 151] | > 100
18 | CCOC(=O)c1cc(-c2ccccc2)sc1NC(=O)COC(=O)c1cccc(OC(F)(F)F)c1 [Compound 63] | > 100
19 | CCOC(=O)c1cc(-c2ccccc2)sc1N1CCN(C(=O)c2cccc(NS(C)(=O)=O)c2)CC1 [Compound 279] | > 100
20 | CCOC(=O)c1cc(-c2ccccc2)sc1NC(=O)CNC(=O)/C=C/c1cccc(NS(C)(=O)=O)c1 [Compound 377] | > 100
21 | CCOC(=O)c1cc(-c2ccccc2)sc1NC(=O)CN(C)C(=O)Cc1cccc(NS(C)(=O)=O)c1 [Compound 336] | > 100
22 | CCOC(=O)c1cc(C2CCNCC2)sc1NC(=O)COC(=O)c1cccc(NS(C)(=O)=O)c1 [Compound 295] | > 100
23 | CCNC(=O)c1cc(-c2ccccc2)sc1NC(=O)CNC(=O)c1cccc(NS(C)(=O)=O)c1 [Compound 410] | 50 to 100
24 | CCOC(=O)c1cc(-c2ccccc2)sc1NC(=O)CNC(=O)c1cccc(S(=O)(=O)N2CCNCC2)c1 [Compound 47] | > 100
25 | CCOC(=O)c1cc(Cc2ccccc2)sc1NC(=O)COC(=O)c1cccc(NS(C)(=O)=O)c1 [Compound 196] | > 100
26 | COC(=O)c1sccc1NC(=O)COC(=O)c1cccc(NS(C)(=O)=O)c1 [Compound 306] | > 100
27 | CCOC(=O)c1cc(-c2ccccc2)sc1NC(=O)CCN(C(C)=O)c1cccc(N(C(C)=O)S(C)(=O)=O)c1 [Compound 237] | > 100
28 | CCOC(=O)c1cc(-c2cccc(C#N)c2)sc1NC(=O)COC(=O)c1cccc(NS(C)(=O)=O)c1 [Compound 212] | > 100

Row | SMILES | EC50 [µM]
29 | CCOC(=O)c1c(-c2ccccc2)csc1NC(=O)COC(=O)c1cccc(NS(C)(=O)=O)c1 [Compound 95] | > 100
30 | CCOC(=O)c1cc(-c2ccccc2)sc1NC(=O)CN1CCN(C(=O)Cc2cccc(NS(C)(=O)=O)c2)CC1 [Compound 334] | > 100
31 | CS(=O)(=O)Nc1cccc(C(=O)OCC(=O)Nc2sc(-c3ccccc3)cc2C(=O)OCC(=O)O)c1 [Compound 209] | > 100
32 | CCOC(=O)c1cc(-c2ccc(P(=O)(OCC)OCC)cc2)sc1NC(=O)COC(=O)c1cccc(P(=O)(OCC)OCC)c1 [Compound 390] | > 100
33 | CCOC(=O)c1cc(-c2ccccc2)sc1NC(=O)CNC(=O)c1cccc(S(=O)(=O)NC)c1 [Compound 11] | > 100
34 | CCNC(=O)c1cc(-c2ccccc2)sc1NC(=O)COC(=O)c1cccc(NS(C)(=O)=O)c1 [Compound 117] | > 100
35 | CCOC(=O)c1cc(-c2ccccc2)sc1NC(=O)COC(=O)c1cccc(CNS(C)(=O)=O)c1 [Compound 177] | > 100
36 | CCOC(=O)c1cc(-c2ccccc2)oc1NC(=O)COC(=O)c1cccc(NS(C)(=O)=O)c1 [Compound 301] | 50 to 100
37 | CS(=O)(=O)Nc1cccc(C(=O)OCC(=O)Nc2sc(-c3ccccc3)cc2C(=O)OCCOCc2ccccc2)c1 [Compound 223] | > 100
38 | CCOC(=O)c1cc(-c2ccccc2)sc1NC(=O)CCOC(=O)c1cccc(NS(C)(=O)=O)c1 [Compound 229] | > 100
39 | CCOC(=O)c1cc(-c2ccc(N3CCNCC3)cc2)sc1NC(=O)COC(=O)c1cccc(NS(C)(=O)=O)c1 [Compound 198] | > 100
40 | CCOC(=O)c1cc(-c2ccccc2)sc1NC(=O)COC(=O)c1cccc(B(O)O)c1 [Compound 299] | > 100
41 | CCOC(=O)c1cc(-c2ccccc2)sc1NC(=O)C1CCN(C(=O)c2cccc(NS(C)(=O)=O)c2)C1 (stereo not shown) [Compound 138, Ethyl 2-(1-(3-(methylsulfonamido)benzoyl)pyrrolidine-3-carboxamido)-5-phenylthiophene-3-carboxylate] | ≤ 25
42 | CS(=O)(=O)Nc1cccc(C(=O)OCC(=O)Nc2sccc2C#N)c1 [Compound 90] | > 100
43 | CCOC(=O)c1cc(-c2ccc(N(C)C)cc2)sc1NC(=O)COC(=O)c1cccc(NS(C)(=O)=O)c1 [Compound 213] | > 100
44 | COC(=O)c1cc(-c2ccccc2)sc1NC(=O)COC(=O)c1cccc(NS(C)(=O)=O)c1 [Compound 191] | > 100
45 | CCOC(=O)c1cc(-c2ccccc2)sc1NC(=O)Oc1ccc(NS(C)(=O)=O)cc1 [Compound 267] | > 100
46 | CCOC(=O)c1cc(-c2ccccc2)sc1NC(=O)[C@H](CC)OC(=O)c1cccc(S(N)(=O)=O)c1 [Compound 79] | > 100
47 | CCOC(=O)c1cc(-c2ccccc2)sc1NC(=O)c1cccc(S(N)(=O)=O)c1 [Compound 10] | > 100
48 | CCOC(=O)c1nc(-c2ccccc2)[nH]c1NC(=O)COC(=O)c1cccc(NS(C)(=O)=O)c1 [Compound 141] | > 100
49 | CCOC(=O)c1cc(-c2ccccc2)sc1NC(=O)Cn1nncc1-c1cccc(NS(C)(=O)=O)c1 [Compound 182] | > 100
50 | CS(=O)(=O)Nc1cccc(C(=O)OCC(=O)Nc2sc(-c3ccccc3)cc2C(=O)O)c1 [Compound 154] | > 100
51 | COC(=O)c1ccsc1NC(=O)CNC(=O)c1cccc(S(N)(=O)=O)c1 [Compound 22] | > 100
52 | CCOC(=O)c1cc(-c2ccccc2)sc1NC(=O)[C@H](CC)OC(=O)c1cccc(NS(C)(=O)=O)c1 [Compound 80] | > 100
53 | CCOC(=O)c1cc(-c2ccccc2)sc1NC(=O)Nc1cccc(S(N)(=O)=O)c1 [Compound 21] | > 100
54 | CCOC(=O)c1cc(-c2ccccc2)sc1NC(=O)CNC(=O)Cc1cccc(S(N)(=O)=O)c1 [Compound 371] | > 100
55 | CCOC(=O)c1cc(-c2ccccc2)sc1NC(=O)COC(=O)c1cccc(O)c1 [Compound 60] | > 100
